Patent US20040156869A1, “2-substituted quinazolin-4-ylamine analogues” (Neurogen Corporation, priority 2002, published 2004)

Biological target: human capsaicin receptor (VR1) (Homo sapiens, UniProt Q8NER1)
Experiment: Capsaicin receptor binding assay ([3H]RTX competition, VR1-transfected HEK293 membranes)

Sequence of human capsaicin receptor (VR1) (Q8NER1 whole entry): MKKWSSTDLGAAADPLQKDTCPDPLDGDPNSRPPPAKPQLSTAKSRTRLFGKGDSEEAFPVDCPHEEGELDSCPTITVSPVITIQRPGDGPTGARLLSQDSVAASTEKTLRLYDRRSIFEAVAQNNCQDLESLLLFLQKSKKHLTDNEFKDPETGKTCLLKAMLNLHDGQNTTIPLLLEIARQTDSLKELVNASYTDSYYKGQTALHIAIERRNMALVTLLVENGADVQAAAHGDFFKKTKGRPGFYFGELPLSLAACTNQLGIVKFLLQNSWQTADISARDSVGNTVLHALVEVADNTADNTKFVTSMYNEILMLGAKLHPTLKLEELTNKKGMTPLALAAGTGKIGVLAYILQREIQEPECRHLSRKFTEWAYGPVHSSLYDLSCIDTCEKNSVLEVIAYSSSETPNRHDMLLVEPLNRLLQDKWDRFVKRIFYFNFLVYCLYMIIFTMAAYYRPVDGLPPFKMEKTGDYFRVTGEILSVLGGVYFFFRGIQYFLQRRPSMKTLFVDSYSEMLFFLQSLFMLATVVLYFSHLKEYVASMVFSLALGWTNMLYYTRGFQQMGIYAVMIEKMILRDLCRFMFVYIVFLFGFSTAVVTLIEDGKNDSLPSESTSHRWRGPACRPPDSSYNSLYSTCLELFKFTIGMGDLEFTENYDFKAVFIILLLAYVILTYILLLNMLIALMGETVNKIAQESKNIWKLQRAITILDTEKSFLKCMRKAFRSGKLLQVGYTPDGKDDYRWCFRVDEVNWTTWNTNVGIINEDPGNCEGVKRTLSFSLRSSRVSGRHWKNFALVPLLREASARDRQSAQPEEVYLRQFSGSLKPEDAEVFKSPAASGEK

SMILES | Ki [nM]
C[C@@H]1CN(Cc2nc(Nc3ccc(C(C)(C)C)cc3)c3ccc(-c4ncccc4Cl)cc3n2)CCO1 [Compound 672, (R)-(4-tert-Butyl-phenyl)-[7-(3-chloro-pyridin-2-yl)-2-(2-methyl-morpholin-4-ylmethyl)-quinazolin-4-yl]-amine] | < 1000
CC(C)c1ccc(Nc2nc(CN3CCO[C@H](C)C3)nc3cc(-c4ncccc4Cl)ccc23)cc1 [Compound 673, (R)-[7-(3-Chloro-pyridin-2-yl)-2-(2-methyl-morpholin-4-ylmethyl)-quinazolin-4-yl]-(4-isopropyl-phenyl)-amine] | < 1000
C[C@@H]1CN(Cc2nc(Nc3ccc(C(F)(F)F)cc3)c3ccc(-c4ncccc4Cl)cc3n2)CCO1 [Compound 674, (R)-[7-(3-Chloro-pyridin-2-yl)-2-(2-methyl-morpholin-4-ylmethyl)-quinazolin-4-yl]-(4-trifluoromethyl-phenyl)-amine] | < 1000
C[C@@H]1CN(Cc2nc(Nc3ccc(C(C)(C)C)cc3)c3ccc(-c4ccncc4)cc3n2)C[C@H](C)O1 [Compound 675, (4-tert-Butyl-phenyl)-[2-(2,6-dimethyl-morpholin-4-ylmethyl)-7-pyridin-4-yl-quinazolin-4-yl]-amine (cis)] | < 1000
C[C@@H]1CN(Cc2nc(Nc3ccc(C(C)(C)C)cc3)c3ccc(-c4cccnc4)cc3n2)C[C@H](C)O1 [Compound 676, (4-tert-Butyl-phenyl)-[2-(2,6-dimethyl-morpholin-4-ylmethyl)-7-pyridin-3-yl-quinazolin-4-yl]-amine (cis)] | < 1000
C[C@@H]1CN(Cc2nc(Nc3ccc(C(C)(C)C)cc3)c3ccc(-c4cncnc4)cc3n2)C[C@H](C)O1 [Compound 677, (4-tert-Butyl-phenyl)-[2-(2,6-dimethyl-morpholin-4-ylmethyl)-7-pyrimidin-5-yl-quinazolin-4-yl]-amine (cis)] | < 1000
COc1ncc(-c2ccc3c(Nc4ccc(C(C)(C)C)cc4)nc(CN4C[C@@H](C)O[C@@H](C)C4)nc3c2)c(OC)n1 [Compound 678, (4-tert-Butyl-phenyl)-[7-(2,4-dimethoxy-pyrimidin-5-yl)-2-(2,6-dimethyl-morpholin-4-ylmethyl)-quinazolin-4-yl]-amine (cis)] | < 1000
CCC(C)c1ccc(Nc2nc(CN3C[C@@H](C)O[C@@H](C)C3)nc3cc(-c4ncccc4Cl)ccc23)cc1 (stereo partly drawn) [Compound 680, (4-sec-Butyl-phenyl)-[7-(3-chloro-pyridin-2-yl)-2-(2,6-dimethyl-morpholin-4-ylmethyl)-quinazolin-4-yl]-amine (cis)] | < 1000
CC(C)c1ccc(Nc2nc(CN3C[C@@H](C)O[C@@H](C)C3)nc3cc(-c4ncccc4Cl)ccc23)cc1 [Compound 681, [7-(3-Chloro-pyridin-2-yl)-2-(2,6-dimethyl-morpholin-4-ylmethyl)-quinazolin-4-yl]-(4-isopropyl-phenyl)-amine (cis)] | < 1000

Now from value to molecule:

Ki [nM] | SMILES
< 1000 | C=CCN(C)Cc1nc(Nc2ccc(C(F)(F)F)cc2)c2ncc(-c3ncccc3C(F)(F)F)cc2n1 [Compound 662, [2-[(Allyl-methyl-amino)-methyl]-7-(3-trifluoromethyl-pyridin-2-yl)-pyrido[3,2-d]pyrimidin-4-yl]-(4-trifluoromethyl-phenyl)-amine]
< 1000 | C=CCN(CC=C)Cc1nc(Nc2ccc(C(F)(F)F)cc2)c2ncc(-c3ncccc3C(F)(F)F)cc2n1 [Compound 663, [2-Diallylaminomethyl-7-(3-trifluoromethyl-pyridin-2-yl)-pyrido[3,2-d]pyrimidin-4-yl]-(4-trifluoromethyl-phenyl)-amine]
< 1000 | CCCN(CCC)Cc1nc(Nc2ccc(C(F)(F)F)cc2)c2ncc(-c3ncccc3C(F)(F)F)cc2n1 [Compound 664, [2-Dipropylaminomethyl-7-(3-trifluoromethyl-pyridin-2-yl)-pyrido[3,2-d]pyrimidin-4-yl]-(4-trifluoromethyl-phenyl)-amine]
< 1000 | CCCN(Cc1nc(Nc2ccc(C(F)(F)F)cc2)c2ncc(-c3ncccc3C(F)(F)F)cc2n1)CC1CC1 [Compound 665, [2-[(Cyclopropylmethyl-propyl-amino)-methyl]-7-(3-trifluoromethyl-pyridin-2-yl)-pyrido[3,2-d]pyrimidin-4-yl]-(4-trifluoromethyl-phenyl)-amine]
< 1000 | CCCCN(CCCC)Cc1nc(Nc2ccc(C(F)(F)F)cc2)c2ncc(-c3ncccc3C(F)(F)F)cc2n1 [Compound 666, [2-Dibutylaminomethyl-7-(3-trifluonmethyl-pyridin-2-yl)-pyrido[3,2-d]pyrimidin-4-yl]-(4-trifluoromethyl-phenyl)-amine]
< 1000 | C=C(C)CN(CC)Cc1nc(Nc2ccc(C(F)(F)F)cc2)c2ncc(-c3ncccc3C(F)(F)F)cc2n1 [Compound 667, [2-{[Ethyl-(2-methyl-allyl)-amino]-methyl}-7-(3-trifluoromethyl-pyridin-2-yl)-pyrido[3,2-d]pyrimidin-4-yl]-(4-trifluoromethyl-phenyl)-amine]
< 1000 | C[C@@H]1C[C@H](C)CN(Cc2nc(Nc3ccc(C(F)(F)F)cc3)c3ncc(-c4ncccc4C(F)(F)F)cc3n2)C1 [Compound 668, [2-(3,5-Dimethyl-piperidin-1-ylmethyl)-7-(3-trifluoromethyl-pyridin-2-yl)-pyrido[3,2-d]pyrimidin-4-yl]-(4-trifluoromethyl-phenyl)-amine (cis)]
< 1000 | CC1CCCN(Cc2nc(Nc3ccc(C(F)(F)F)cc3)c3ncc(-c4ncccc4C(F)(F)F)cc3n2)C1 (stereo not shown) [Compound 669, [2-(3-Methyl-piperidin-1-ylmethyl)-7-(3-trifluoromethyl-pyridin-2-yl)-pyrido[3,2-d]pyrimidin-4-yl]-(4-trifluoromethyl-phenyl)-amine]
< 1000 | COCCN(CCOC)Cc1nc(Nc2ccc(C(F)(F)F)cc2)c2ncc(-c3ncccc3C(F)(F)F)cc2n1 [Compound 670, [2-{[Bis-(2-methoxy-ethyl)-amino]-methyl}-7-(3-trifluoromethyl-pyridin-2-yl)-pyrido[3,2-d]pyrimidin-4-yl]-(4-trifluoromethyl-phenyl)-amine]
< 1000 | FC(F)(F)c1ccc(Nc2nc(CN3C=NCCC3)nc3cc(-c4ncccc4C(F)(F)F)ccc23)cc1 [Compound 671, [2-(5,6-Dihydro-4H-pyrimidin-1-ylmethyl)-7-(3-trifluoromethyl-pyridin-2-yl)-quinazolin-4-yl]-(4-trifluoromethyl-phenyl)-amine]
< 1000 | FC(F)(F)c1ccc(Nc2nc(C3CCNCC3)nc3cc(-c4ncccc4C(F)(F)F)ccc23)cc1 [Compound 679, [2-Piperidin-4-yl-7-(3-trifluoromethyl-pyridin-2-yl)-quinazolin-4-yl]-(4-trifluoromethyl-phenyl)-amine]
< 1000 | C[C@@H]1CN(Cc2nc(Nc3ccc(C(C)(C)C)cc3)c3ccc(-c4ncccc4C(F)(F)F)cc3n2)CCO1 [Compound 682, (R)-(4-tert-Butyl-phenyl)-[2-(2-methyl-morpholin-4-ylmethyl)-7-(3-trifluoromethyl-pyridin-2-yl)-quinazolin-4-yl]-amine]
< 1000 | C[C@@H]1CN(Cc2nc(Nc3ccc(C(F)(F)F)cc3)c3ccc(-c4ncccc4C(F)(F)F)cc3n2)CCO1 [Compound 683, (R)-[2-(2-Methyl-morpholin-4-ylmethyl)-7-(3-trifluoromethyl-pyridin-2-yl)-quinazolin-4-yl]-(4-trifluoromethyl-phenyl)-amine]
